This is an account of results in patent US9499537B2, “Antiviral pyrrolopyridine derivatives and method for preparing the same” (KOREA RESEARCH INSTITUTE OF CHEMICAL TECHNOLOGY, priority 2011, dated 2016).

SMILES strings stand for the structures.

The first data set has as its system MT-4 cells. The experiment in a line: Cytotoxicity test in MT-4 cells (MTT method). Type of data set: cell-based.
Details: not given
The protocol:
In order to look into the HIV-1 inhibition effects of the compound of the present invention, an in vitro test for HIV-1 inhibition effects was carried out as follows according to a known method (H. Tanaka et al., J. Med. Chem., 1991, 34, 349). MT-4 cells were used as host cells, and the degree of the compound of the present invention inhibiting the cytotoxicity of the virus-infected MT-4 cells was investigated.
First, MT-4 cells were diffused at a concentration of 1×10^4 cell/well to a culture medium, and HIV-1 was inoculated so that the concentration was 500 TCI50 (concentration at which 50% of the cell is infected)/well. Immediately after the inoculation, the cell dispersion was transferred in 100 μL each to a flat microtiter plate in which the sample of the compound of the present invention was placed. The sample was incubated for approximately for 4 to 5 days at […], and the virus suppression effect was determined using an MTT method. In addition, the cytotoxicity was also determined by measuring the survivability of the experimentally virus-infected cells using an MTT method. As a comparative compound, azidothymidine (AZT) and raltegravir were used.
Turning to `Cc1nc2c(c(C)c(C)n2C)c(-c2cc(F)c3c(c2C)CCCO3)c1[C@H](OC(C)(C)C)C(=O)O` [Example 74, (S)-2-(Tert-butoxy)-2-((R)-4-(8-fluoro-5-methylchroman-6-yl)-1,2,3,6-tetramethyl-1H-pyrrolo[2,3-b]pyridin-5-yl)acetic acid], the “CC60 (μM) ** : concentration at 50% cell damage with respect to MT-4 cells” value is 23.92 µM.

The data set is the same for the next values; noted with them: human.
Take `CCn1c(C)c(C)c2c(-c3ccc(Cl)cc3)c([C@@H](OC(C)(C)C)C(=O)O)c(C)nc21` [Example 33, (R)-2-tert-butoxy-2-(4-(4-chlorophenyl)-1-(ethyl)-2,3,6-trimethyl-1H-pyrrolo[2,3-b]pyridin-5-yl)acetic acid]: the “CC60 (μM) ** : concentration at 50% cell damage with respect to MT-4 cells” value was 25.5 µM.

On to `Cc1nc2c(c(C)c(C)n2Cc2cccc(C#N)c2)c(-c2ccc(Cl)cc2)c1[C@H](OC(C)(C)C)C(=O)O` [Example 61, (S)-2-(Tert-butoxy)-2-(4-(4-chlorophenyl)-1-(3-cyanobenzyl)-2,3,6-trimethyl-1H-pyrrolo[2,3-b]pyridin-5-yl)acetic acid], for which the “CC60 (μM) ** : concentration at 50% cell damage with respect to MT-4 cells” value stood at 9.43 µM.

As to `COCCn1c(C)c(C)c2c(-c3ccc(Cl)cc3)c([C@H](OC(C)(C)C)C(=O)O)c(C)nc21` [Example 78, (S)-2-(tert-butoxy)-2-(4-(4-chlorophenyl)-1-(2-methoxyethyl)-2,3,6-trimethyl-1H-pyrrolo[2,3-b]pyridin-5-yl)acetic acid], the “CC60 (μM) ** : concentration at 50% cell damage with respect to MT-4 cells” value was 18.36 µM.

Regarding `CCn1c(C)c(C)c2c(-c3ccc(Cl)cc3)c(C(OC(C)(C)C)C(=O)O)c(C)nc21` (stereo not shown) [Example 2, 2-Tert-butoxy-2-(4-(4-chlorophenyl)-1-ethyl-2,3,6-trimethyl-1H-pyrrolo[2,3-b]pyridin-5-yl)acetic acid], the “CC60 (μM) ** : concentration at 50% cell damage with respect to MT-4 cells” value is above 233 µM.

As for `Cc1nc2c(c(C)c(C)n2Cc2ccoc2)c(-c2ccc(Cl)cc2)c1[C@H](OC(C)(C)C)C(=O)O` [Example 62, (S)-2-(Tert-butoxy)-2-(4-(4-chlorophenyl)-1-(furan-3-ylmethyl)-2,3,6-trimethyl-1H-pyrrolo[2,3-b]pyridin-5-yl)acetic acid], the “CC60 (μM) ** : concentration at 50% cell damage with respect to MT-4 cells” value stood at 15.34 µM.

As to `Cc1nc2c(c(C)c(C)n2Cc2ccsc2)c(-c2ccc(Cl)cc2)c1[C@H](OC(C)(C)C)C(=O)O` [Example 43, (S)-2-(Tert-butoxy)-2-(4-(4-chlorophenyl)-2,3,6-trimethyl-1-(thiophen-3-ylmethyl)-1H-pyrrolo[2,3-b]pyridin-5-yl)acetic acid], the “CC60 (μM) ** : concentration at 50% cell damage with respect to MT-4 cells” value is 17.74 µM.

For the compound `COc1cc(Cn2c(C)c(C)c3c(-c4ccc(Cl)cc4)c(C(OC(C)(C)C)C(=O)O)c(C)nc32)cc(Cl)n1` (stereo not shown) [Example 35, 2-Tert-butoxy-2-(4-(4-chlorophenyl)-1-((2-chloro-6-methoxypyridin-4-yl)methyl)-2,3,6-trimethyl-1H-pyrrolo[2,3-b]pyridin-5-yl)acetic acid], the “CC60 (μM) ** : concentration at 50% cell damage with respect to MT-4 cells” value was 14.86 µM.

For the compound `Cc1nc2c(c(C)c(C)n2CC2CCCCC2)c(-c2ccc(Cl)cc2)c1[C@H](OC(C)(C)C)C(=O)O` [Example 50, (S)-2-(Tert-butoxy)-2-(4-(4-chlorophenyl)-1-(cyclohexylmethyl)-2,3,6-trimethyl-1H-pyrrolo[2,3-b]pyridin-5-yl)acetic acid], the “CC60 (μM) ** : concentration at 50% cell damage with respect to MT-4 cells” value came to 10.32 µM.

On to `CCn1c(C)c(C)c2c(-c3ccc(F)cc3)c(C(OC(C)(C)C)C(=O)O)c(C)nc21` (stereo not shown) [Example 39, 2-Tert-butoxy-2-(1-ethyl-4-(4-fluorophenyl)-2,3,6-trimethyl-1H-pyrrolo[2,3-b]pyridin-5-yl)acetic acid], for which the “CC60 (μM) ** : concentration at 50% cell damage with respect to MT-4 cells” value came to 78.47 µM.

As for `Cc1cccc(Cn2c(C)c(C)c3c(-c4ccc(Cl)cc4)c(C(OC(C)(C)C)C(=O)O)c(C)nc32)n1` (stereo not shown) [Example 14, 2-Tert-butoxy-2-(4-(4-chlorophenyl)-2,3,6-trimethyl-1-((6-methylpyridin-2-yl)methyl)-1H-pyrrolo[2,3-b]pyridin-5-yl)acetic acid], the “CC60 (μM) ** : concentration at 50% cell damage with respect to MT-4 cells” value is 36.6 µM.

On to `Cc1nc2c(c(C)c(C)n2CCCC#N)c(-c2ccc(Cl)cc2)c1[C@H](OC(C)(C)C)C(=O)O` [Example 60, (S)-2-(Tert-butoxy)-2-(4-(4-chlorophenyl)-1-(3-cyanopropyl)-2,3,6-trimethyl-1H-pyrrolo[2,3-b]pyridin-5-yl)acetic acid], for which the “CC60 (μM) ** : concentration at 50% cell damage with respect to MT-4 cells” value turned out to be 18.23 µM.

Consider `Cc1nc2c(c(C)c(C)n2CCN2CCCC2=O)c(-c2ccc(Cl)cc2)c1[C@H](OC(C)(C)C)C(=O)O` [Example 70, (S)-2-(Tert-butoxy)-2-(4-(4-chlorophenyl)-2,3,6-trimethyl-1-(2-(2-oxopyrrolidin-1-yl)ethyl)-1H-pyrrolo[2,3-b]pyridin-5-yl)acetic acid], for which the “CC60 (μM) ** : concentration at 50% cell damage with respect to MT-4 cells” value amounted to 49.2 µM.

With `CCCCn1c(C)c(C)c2c(-c3ccc(Cl)cc3)c(C(OC(C)(C)C)C(=O)O)c(C)nc21` (stereo not shown) [Example 16, 2-Tert-butoxy-2-(1-butyl-4-(4-chlorophenyl)-2,3,6-trimethyl-1H-pyrrolo[2,3-b]pyridin-5-yl)acetic acid], the “CC60 (μM) ** : concentration at 50% cell damage with respect to MT-4 cells” value is above 219 µM.

For `Cc1nc2c(c(C)c(C)n2Cc2ccn(C)n2)c(-c2ccc(Cl)cc2)c1[C@H](OC(C)(C)C)C(=O)O` [Example 79, (S)-2-(tert-butoxy)-2-(4-(4-chlorophenyl)-2,3,6-trimethyl-1-((1-methyl-1H-pyrazol-3-yl)methyl)-1H-pyrrolo[2,3-b]pyridin-5-yl)acetic acid], the “CC60 (μM) ** : concentration at 50% cell damage with respect to MT-4 cells” value stood at 25.09 µM.

In the case of `Cc1nc2c(c(C)c(C)n2Cc2ccccc2)c(-c2ccc(Cl)cc2)c1C(OC(C)(C)C)C(=O)O` (stereo not shown) [Example 5, 2-(1-Benzyl-4-(4-chlorophenyl)-2,3,6-trimethyl-1H-pyrrolo[2,3-b]pyridin-5-yl)-2-tert-butoxyacetic acid], the “CC60 (μM) ** : concentration at 50% cell damage with respect to MT-4 cells” value came out at 17 µM.

Regarding `Cc1nc2c(c(C)c(C)n2CC2CC2(F)F)c(-c2ccc(Cl)cc2)c1[C@H](OC(C)(C)C)C(=O)O` (stereo partly drawn) [Example 69, (S)-2-(Tert-butoxy)-2-(4-(4-chlorophenyl)-1-((2,2-difluorocyclopropyl)methyl)-2,3,6-trimethyl-1H-pyrrolo[2,3-b]pyridin-5-yl)acetic acid], the “CC60 (μM) ** : concentration at 50% cell damage with respect to MT-4 cells” value was determined as 17.55 µM.

Regarding `CCn1c(C)c(C)c2c(-c3ccc(C#N)cc3)c(C(OC(C)(C)C)C(=O)O)c(C)nc21` (stereo not shown) [Example 40, 2-Tert-butoxy-2-(4-(4-cyanophenyl)-1-ethyl-2,3,6-trimethyl-1H-pyrrolo[2,3-b]pyridin-5-yl)acetic acid], the “CC60 (μM) ** : concentration at 50% cell damage with respect to MT-4 cells” value came to 91.58 µM.

For `Cc1nc2c(c(C)c(C)n2Cc2cnccn2)c(-c2ccc(Cl)cc2)c1[C@H](OC(C)(C)C)C(=O)O` [Example 77, (S)-2-(Tert-butoxy)-2-(4-(4-chlorophenyl)-2,3,6-trimethyl-1-(pyrazin-2-ylmethyl)-1H-pyrrolo[2,3-b]pyridin-5-yl)acetic acid], the “CC60 (μM) ** : concentration at 50% cell damage with respect to MT-4 cells” value is 38.86 µM.

Regarding `Cc1nc2c(c(C)c(C)n2C)c(-c2ccc3c(c2Cl)CCCO3)c1[C@H](OC(C)(C)C)C(=O)O` [Example 73, (S)-2-(tert-butoxy)-2-((S)-4-(5-chlorochroman-6-yl)-1,2,3,6-tetramethyl-1H-pyrrolo[2,3-b]pyridin-5-yl)acetic acid], the “CC60 (μM) ** : concentration at 50% cell damage with respect to MT-4 cells” value amounted to 25.1 µM.

Turning to `Cc1nc2c(c(C)c(C)n2Cc2ccc(F)cc2)c(-c2ccc(Cl)cc2)c1C(OC(C)(C)C)C(=O)O` (stereo not shown) [Example 8, 2-Tert-butoxy-2-(4-(4-chlorophenyl)-1-(4-fluorobenzyl)-2,3,6-trimethyl-1H-pyrrolo[2,3-b]pyridin-5-yl)acetic acid], the “CC60 (μM) ** : concentration at 50% cell damage with respect to MT-4 cells” value was 12.8 µM.

As for `Cc1nc2c(c(C)c(C)n2Cc2ccccc2C#N)c(-c2ccc(Cl)cc2)c1C(OC(C)(C)C)C(=O)O` (stereo not shown) [Example 11, 2-Tert-butoxy-2-(4-(4-chlorophenyl)-1-(2-cyanobenzyl)-2,3,6-trimethyl-1H-pyrrolo[2,3-b]pyridin-5-yl)acetic acid], the “CC60 (μM) ** : concentration at 50% cell damage with respect to MT-4 cells” value is 15.19 µM.

As for `Cc1nc2c(c(C)c(C)n2CC(F)(F)F)c(-c2ccc(Cl)cc2)c1[C@H](OC(C)(C)C)C(=O)O` [Example 59, (S)-2-(Tert-butoxy)-2-(4-(4-chlorophenyl)-2,3,6-trimethyl-1-(2,2,2-trifluoromethyl)-1H-pyrrolo[2,3-b]pyridin-5-yl)acetic acid], the “CC60 (μM) ** : concentration at 50% cell damage with respect to MT-4 cells” value was 5.3 µM.

In the case of `Cc1nc2c(c(C)c(C)n2Cc2cccnc2F)c(-c2ccc(Cl)cc2)c1[C@H](OC(C)(C)C)C(=O)O` [Example 68, (S)-2-(Tert-butoxy)-2-(4-(4-chlorophenyl)-1-((2-fluoropyridin-3-yl)methyl)-2,3,6-trimethyl-1H-pyrrolo[2,3-b]pyridin-5-yl)acetic acid], the “CC60 (μM) ** : concentration at 50% cell damage with respect to MT-4 cells” value was determined as 17.14 µM.

As to `Cc1nc2c(c(C)c(C)n2CC2CC2)c(-c2ccc(Cl)cc2)c1[C@@H](OC(C)(C)C)C(=O)O` [Example 29, (R)-2-tert-butoxy-2-(4-(4-chlorophenyl)-1-(cyclopropylmethyl)-2,3,6-trimethyl-1H-pyrrolo[2,3-b]pyridin-5-yl)acetic acid], the “CC60 (μM) ** : concentration at 50% cell damage with respect to MT-4 cells” value turned out to be 100 µM.
